From patent US20080033053A1, “Cross-Reference To Related Applications” (priority 2004, published 2008)

Tests used:
[1] = test system: human peripheral blood lymphocytes; conditions: in vitro; cited from earlier work
[2] = test system: patients with Huntington's disease; conditions: eight patients with Huntington's disease, open-label; cited from earlier work
[3] = humans, cited from earlier work
[4] = test system: mouse bone marrow; conditions: in vivo mouse bone marrow micronucleus test; cited from earlier work
[5] = test system: rats; conditions: cited from earlier work
[6] = by glomerular filtration and renal tubular secretion; cited from earlier work
[7] = Ames Test; cited from earlier work
[8] = test system: retinas from rats; test: RNA expression profiling of retina, vehicle vs. (low dose & high dose) amantadine at steady state; format: in vivo, Sprague Dawley rats
[9] = test system: Chinese Hamster Ovary cells; conditions: cited from earlier work

Structure (SMILES): Cl.NC12CC3CC(CC(C3)C1)C2 [amantadine, 1-amino adamantane HCl]
- chromosomal damage [1]: no evidence of chromosomal damage
- dyskinesias [2]: significant reduction of dyskinesias
- half-life, range [3]: 10 to 25 h
- half-life ([3]; mean ± spread): 17 ± 4 h
- chromosomal damage [4]: no evidence of chromosomal damage
- teratogenic dose [5]: 50 mg/kg/day
- excretion [6]: primarily excreted unchanged in the urine
- mutagenicity [7]: non-mutagenic
- TRADD gene expression ([8]; retinas following amantadine treatment, no fold change printed): down-regulated
- up-regulation of several crystallins ([8]; retinas of amantadine-treated rats): 4-21 fold
- mutagenicity [9]: non-mutagenic
